Patent US20220153751A1, “BIFUNCTIONAL COMPOUNDS” (BioTheryX, Inc., priority 2018, published 2022)

Experiments:
Assay type in all cases: cell-based
IKAROS = biological target: T1, IKAROS (Homo sapiens, UniProt Q13422+Q96SW2); assay: IKAROS degradation assay (Western blot, MV-4-11 cells); conditions: MV4-11, 6-8 h
T1 construct: endogenous in cells; host or cells: MV-4-11
Protocol: (§1) MV-4-11 cells were grown in RPMI 1640 media supplemented with 10% fetal bovine serum, streptomycin and penicillin.
(§2) Cells were cultured at approximately 10^6 cells per mL and incubated in DMSO or the indicated compound for 6-8 h. Whole cell extracts were prepared using RIPA buffer according to manufacturer's protocol (Pierce). Briefly, 3×10^6 cells were washed once in PBS, the cell pellets were resuspended in RIPA buffer and allowed to incubate for 15 minutes on ice. Cells debris was removed by centrifugation and the cleared whole cell lysates were transferred to new tubes for further analysis.
(§3) For Western blot analysis, whole cell protein extracts were separated on 4-12% SDS-polyacrylamide gels, transferred to nitrocellulose and probed with the indicated primary antibodies. Membranes were subsequently washed and probed with the appropriate IRDye secondary antibodies (LI-COR). The signal was detected using the Odyssey Imaging System (LI-COR).
(§4) The following antibodies were used in these studies: Anti-eRF3/GSPT1: Abcam, ab126090 (Cambridge, Mass.); Anti-Ikaros: Abcam, ab191394 (Cambridge, Mass.); Anti-CK1α: Abcam, ab108296 (Cambridge, Mass.); Anti-CDK9: Santa Cruz Biotechnology, sc13130 (Dallas, Tex.); Anti-CDK16: Millipore Sigma, HPA001366 (St. Louis, Mo.); 3-actin (8H10comD10) mouse monoclonal antibody: Cell Signaling Technology, #3700 (Danvers, Mass.); IRDye 680RD Goat anti-rabbit antibody: LI-COR, 926-68071 (Lincoln, Nebr.); IRDye 800CW Goat anti-mouse antibody: LI-COR, 926-32210 (Lincoln, Nebr.).
(§5) CDK9 activities are shown in Table 4 at two different concentrations. CDK16 activities are shown in Table 5 at two different concentrations. In each of Tables 1-5, the % degradation values are reported as “A”, “B”, “C”, or “D”. “A” represents a % degradation value of less than 25% (value <25%). “B” represents a % degradation value of equal to or more than 25% and less than 50% (25%≤value<50%). “C” represents a % degradation value of equal to or more than 50% and less than 75% (50%≤value<75%). “D” represents a % degradation value of equal to or more than 75% (value ≥75%).

CK1α = biological target: T2, CK1α (Homo sapiens, UniProt P48729+Q96SW2); assay: CK1α degradation assay (Western blot, MV-4-11 cells); conditions: MV4-11, 6-8 h
T2 construct: Whole cell extracts were prepared using RIPA buffer; endogenous in cells; host or cells: MV-4-11
Protocol: as §1, §2, §3, §4, §5

IL-1β = IL-1β inhibition assay, LPS-induced PBMCs / CD14+ monocytes (Meso Scale); conditions: 1 h pretreatment, 100 ng/mL LPS 18-24 h
Protocol: (§6) Either frozen primary blood mononuclear cells (PBMCs) or frozen CD14+ mobilized peripheral blood monocytes were purchased from AllCells (PB003F, Normal Peripheral Blood MNC (Alameda, Calif.)). Cells were quick thawed, washed 1-time with RPMI-1640 (10% FBS/1% Pen-Strep) and plated in 96 well plates at 200,000 cells per well. Cells were pretreated with DMSO only or with the indicated compound for 1 h and then induced with 100 ng/mL lipopolysaccharide (LPS) for 18-24 h. The supernatant was analyzed for IL-1β, IL-6, and TNFα, using Meso Scale assay according to manufacturer's protocol. The negative control wells were treated with DMSO.
(§7) In Table 6, the % inhibition values are reported as “A”, “B”, “C”, or “D”. “A” represents a % inhibition value of less than 50% (value <50%). “B” represents a % inhibition value of equal to or more than 50% and less than 70% (50%≤value<70%). “C” represents a % inhibition value of equal to or more than 70% and less than 90% (70%≤value<90%). “D” represents a % inhibition value of equal or more than 90% (value ≥90%). In Table 7, the fold-change values are reported as “A”, “B”, “C”, or “D”. “A” represents a fold-change value of equal to or less than 0.1 (value ≤0.1). “B” represents a fold-change value of more than 0.1 and equal to or less than 0.5 (0.1<value≤0.5). “C” represents a fold-change value of more than 0.5 and equal to or less than 1 (0.5<value≤1). “D” represents a fold-change value of more than 1 (value >1).

IL-6 = IL-6 inhibition assay, LPS-induced PBMCs / CD14+ monocytes (Meso Scale); conditions: 1 h pretreatment, 100 ng/mL LPS 18-24 h
Protocol: as §6, §7

TNF-α = TNF-α inhibition assay, LPS-induced PBMCs / CD14+ monocytes (Meso Scale); conditions: 1 h pretreatment, 100 ng/mL LPS 18-24 h
Protocol: as §6, §7

MOLM-13 cells = assay: MOLM-13 cell viability assay (CellTiter-Glo); conditions: Homo sapiens, MOLM-13, 72 h, 3 days, read-out: MOLM-13 Cell Viability % DMSO at 1 μM
How it was run: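 MOLM-13 cells at 2500 cells/well were exposed to compound for 3 days at 37 °C. Viability was read by CellTiter-Glo luminescence and expressed as % of DMSO control, binned A (<50%), B (50–<70%), C (70–<90%) or D (≥90%).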

GSPT1 = biological target: T3, GSPT1 (Homo sapiens, UniProt P15170+Q96SW2); assay: GSPT1 degradation assay (Western blot, MV-4-11 cells); conditions: MV4-11, 6-8 h
T3 construct: Whole cell extracts were prepared using RIPA buffer; endogenous in cells; host or cells: MV-4-11
Protocol: as §1, §2, §3, §4, §5

CDK9 = biological target: T4, CDK9 (Homo sapiens, UniProt P50750); assay: CDK9 degradation assay (Western blot, MV-4-11 cells); conditions: 6-8 h
T4 construct: Whole cell extracts were prepared using RIPA buffer; endogenous in cells; host or cells: MV-4-11
How it was run: (§8)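 Reported degradation is grouped into four bands (A below 25%, B 25% to under 50%, C 50% to under 75%, D 75% or more). Treatment lasts 6-8 h against a DMSO control, followed by RIPA extraction and immunoblotting with near-infrared detection.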

CDK16 = biological target: T5, CDK16 (Homo sapiens, UniProt Q00536); assay: CDK16 degradation assay (Western blot, MV-4-11 cells); conditions: 6-8 h
T5 construct: Whole cell extracts were prepared using RIPA buffer; endogenous in cells; host or cells: MV-4-11
How it was run: as §8

T2 sequence (P48729 whole entry): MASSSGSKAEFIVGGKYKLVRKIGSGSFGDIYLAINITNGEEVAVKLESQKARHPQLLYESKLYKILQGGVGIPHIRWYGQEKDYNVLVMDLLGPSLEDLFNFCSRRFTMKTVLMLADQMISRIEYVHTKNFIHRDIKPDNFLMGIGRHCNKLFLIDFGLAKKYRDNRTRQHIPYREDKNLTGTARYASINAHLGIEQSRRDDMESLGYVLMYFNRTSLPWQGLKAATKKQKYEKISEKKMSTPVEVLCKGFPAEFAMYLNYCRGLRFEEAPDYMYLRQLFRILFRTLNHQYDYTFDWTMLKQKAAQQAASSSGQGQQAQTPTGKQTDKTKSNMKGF
T2 sequence (Q96SW2 whole entry): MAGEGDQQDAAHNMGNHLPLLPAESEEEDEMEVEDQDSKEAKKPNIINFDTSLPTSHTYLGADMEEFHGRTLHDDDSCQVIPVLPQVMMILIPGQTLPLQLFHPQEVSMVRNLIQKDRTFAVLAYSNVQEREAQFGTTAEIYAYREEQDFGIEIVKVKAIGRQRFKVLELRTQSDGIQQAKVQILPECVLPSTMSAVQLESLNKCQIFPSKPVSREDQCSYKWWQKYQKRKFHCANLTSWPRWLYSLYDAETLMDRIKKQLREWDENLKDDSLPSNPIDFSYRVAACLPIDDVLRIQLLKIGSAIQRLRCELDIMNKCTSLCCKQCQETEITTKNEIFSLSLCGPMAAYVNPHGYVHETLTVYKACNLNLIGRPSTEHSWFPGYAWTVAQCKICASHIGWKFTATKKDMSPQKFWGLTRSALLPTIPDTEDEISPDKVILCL
T2 sequence (Q16531 whole entry partner): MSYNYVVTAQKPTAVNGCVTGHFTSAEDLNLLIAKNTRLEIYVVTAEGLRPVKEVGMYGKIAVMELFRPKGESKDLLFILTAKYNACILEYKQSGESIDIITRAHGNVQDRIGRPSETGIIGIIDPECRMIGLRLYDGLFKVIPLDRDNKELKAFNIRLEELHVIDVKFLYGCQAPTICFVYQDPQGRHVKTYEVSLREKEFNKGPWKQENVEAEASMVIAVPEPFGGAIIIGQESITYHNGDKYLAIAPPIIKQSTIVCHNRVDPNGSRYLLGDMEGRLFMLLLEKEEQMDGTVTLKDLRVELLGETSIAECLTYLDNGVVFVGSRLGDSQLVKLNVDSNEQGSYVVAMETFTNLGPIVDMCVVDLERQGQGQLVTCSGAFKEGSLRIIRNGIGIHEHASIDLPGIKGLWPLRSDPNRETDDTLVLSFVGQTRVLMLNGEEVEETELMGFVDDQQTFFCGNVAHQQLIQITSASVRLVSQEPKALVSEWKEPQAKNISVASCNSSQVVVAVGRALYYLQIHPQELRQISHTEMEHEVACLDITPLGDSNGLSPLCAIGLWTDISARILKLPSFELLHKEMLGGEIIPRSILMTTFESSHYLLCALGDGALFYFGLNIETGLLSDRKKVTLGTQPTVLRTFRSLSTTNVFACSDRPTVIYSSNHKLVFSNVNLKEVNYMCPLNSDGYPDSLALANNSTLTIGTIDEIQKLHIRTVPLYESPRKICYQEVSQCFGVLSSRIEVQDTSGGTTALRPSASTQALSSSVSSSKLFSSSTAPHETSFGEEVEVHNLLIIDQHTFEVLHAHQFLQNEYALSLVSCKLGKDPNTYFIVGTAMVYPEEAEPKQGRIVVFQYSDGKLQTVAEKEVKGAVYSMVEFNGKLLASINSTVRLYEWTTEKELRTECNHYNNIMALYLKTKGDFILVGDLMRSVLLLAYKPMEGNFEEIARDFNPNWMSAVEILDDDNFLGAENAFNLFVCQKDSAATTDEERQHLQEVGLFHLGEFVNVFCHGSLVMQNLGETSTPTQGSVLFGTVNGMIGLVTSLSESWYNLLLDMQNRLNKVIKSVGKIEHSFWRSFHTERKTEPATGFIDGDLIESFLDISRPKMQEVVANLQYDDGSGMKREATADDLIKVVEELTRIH
T1 sequence (Q13422 whole entry): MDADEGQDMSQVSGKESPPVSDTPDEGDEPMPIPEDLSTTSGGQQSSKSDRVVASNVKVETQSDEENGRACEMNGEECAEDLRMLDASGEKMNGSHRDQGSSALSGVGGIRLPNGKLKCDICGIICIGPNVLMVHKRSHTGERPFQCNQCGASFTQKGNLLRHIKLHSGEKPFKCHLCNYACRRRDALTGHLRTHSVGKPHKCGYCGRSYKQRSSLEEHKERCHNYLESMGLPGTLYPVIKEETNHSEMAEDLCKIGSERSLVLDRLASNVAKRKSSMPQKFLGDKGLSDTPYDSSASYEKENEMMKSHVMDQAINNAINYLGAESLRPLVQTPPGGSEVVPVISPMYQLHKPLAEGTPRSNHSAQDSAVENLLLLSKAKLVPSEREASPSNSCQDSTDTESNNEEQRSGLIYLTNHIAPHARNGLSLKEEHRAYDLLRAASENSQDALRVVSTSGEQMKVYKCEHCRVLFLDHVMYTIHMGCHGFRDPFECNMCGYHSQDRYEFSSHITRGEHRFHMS
T1 sequence (Q96SW2 whole entry): as the sequence (Q96SW2 whole entry) above
T1 sequence (Q16531 whole entry partner): as the sequence (Q16531 whole entry partner) above
T3 sequence (P15170 whole entry): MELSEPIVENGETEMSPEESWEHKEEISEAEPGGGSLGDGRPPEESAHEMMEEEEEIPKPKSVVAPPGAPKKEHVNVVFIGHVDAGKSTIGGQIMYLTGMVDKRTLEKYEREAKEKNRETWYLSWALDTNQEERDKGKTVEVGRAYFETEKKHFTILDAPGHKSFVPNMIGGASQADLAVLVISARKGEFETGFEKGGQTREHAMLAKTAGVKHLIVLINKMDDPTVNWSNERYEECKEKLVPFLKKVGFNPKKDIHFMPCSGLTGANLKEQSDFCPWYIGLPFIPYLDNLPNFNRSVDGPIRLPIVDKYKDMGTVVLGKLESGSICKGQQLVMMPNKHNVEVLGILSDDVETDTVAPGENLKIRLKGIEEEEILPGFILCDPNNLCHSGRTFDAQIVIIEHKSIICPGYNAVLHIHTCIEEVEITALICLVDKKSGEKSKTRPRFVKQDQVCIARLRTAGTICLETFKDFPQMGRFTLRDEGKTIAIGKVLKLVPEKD
T3 sequence (Q96SW2 whole entry): as the sequence (Q96SW2 whole entry) above
T3 sequence (Q16531 whole entry partner): as the sequence (Q16531 whole entry partner) above
T4 sequence (P50750 whole entry): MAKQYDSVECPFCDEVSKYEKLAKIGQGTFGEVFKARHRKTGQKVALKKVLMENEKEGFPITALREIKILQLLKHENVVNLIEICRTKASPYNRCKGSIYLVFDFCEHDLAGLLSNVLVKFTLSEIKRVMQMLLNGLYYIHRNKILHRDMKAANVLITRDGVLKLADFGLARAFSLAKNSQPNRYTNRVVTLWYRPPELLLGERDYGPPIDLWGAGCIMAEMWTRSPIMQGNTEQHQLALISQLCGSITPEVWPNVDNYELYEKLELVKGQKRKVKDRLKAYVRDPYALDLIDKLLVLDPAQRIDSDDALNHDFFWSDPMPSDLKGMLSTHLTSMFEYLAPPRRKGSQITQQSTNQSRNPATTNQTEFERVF
T5 sequence (Q00536 whole entry): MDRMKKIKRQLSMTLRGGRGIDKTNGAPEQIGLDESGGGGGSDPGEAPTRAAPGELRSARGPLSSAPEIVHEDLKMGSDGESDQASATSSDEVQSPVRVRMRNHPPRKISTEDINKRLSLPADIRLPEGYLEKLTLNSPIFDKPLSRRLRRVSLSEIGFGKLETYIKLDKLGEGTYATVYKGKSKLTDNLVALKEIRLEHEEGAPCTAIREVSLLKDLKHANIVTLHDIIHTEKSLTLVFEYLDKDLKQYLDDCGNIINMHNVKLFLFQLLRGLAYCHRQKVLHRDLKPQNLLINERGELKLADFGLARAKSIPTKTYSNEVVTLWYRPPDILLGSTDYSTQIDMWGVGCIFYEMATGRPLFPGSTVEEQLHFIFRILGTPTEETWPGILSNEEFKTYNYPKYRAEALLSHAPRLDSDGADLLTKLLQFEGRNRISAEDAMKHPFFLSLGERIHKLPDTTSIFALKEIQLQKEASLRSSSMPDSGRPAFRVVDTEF

Compound | Dmax at 1 µM (IKAROS) | Dmax at 1 µM (CK1α) | inhibition at 1 µM (IL-1β) | inhibition at 1 µM (IL-6) | inhibition at 1 µM (TNF-α) | viability at 1 µM (MOLM-13 cells) | Dmax at 1 µM (GSPT1) | Dmax at 0.1 µM (CDK9; MV4-11, 0.1 μM) | Dmax at 1 µM (CDK9; MV4-11, 1 μM) | Dmax at 0.1 µM (CDK16; MV4-11, 0.1 μM) | Dmax at 1 µM (CDK16; MV4-11, 1 μM)
CC(C)(C)c1cnc(CSc2cnc(NC(=O)C3CCN(CC(=O)NCCOCCNC(=O)NCc4ccc5c(c4)CN([C@H]4CCCC(=O)NC4=O)C5=O)CC3)s2)o1 [Compound 6, (S)—N-(5-(((5-(tert-butyl)oxazol-2-yl)methyl)thio)thiazol-2-yl)-1-(1-(2-(2,7-dioxoazepan-3-yl)-1-oxoisoindolin-5-yl)-3,11-dioxo-7-oxa-2,4,10-triazadodecan-12-yl)piperidine-4-carboxamide] | 25 to 50% | < 25% | < 50% | 50 to 70% | < 50% | < 50% |  |  |  |  | 
Cn1ncc(-c2nc(N[C@H]3CC[C@H](NCC(=O)NCCOCCOCCOCCNc4cccc5c4C(=O)N(C4CCC(=O)NC4=O)C5=O)CC3)ncc2F)c1CC1CC1 (some centres unmarked) [Compound 50, 2-(((1r,4r)-4-((4-(5-(cyclopropylmethyl)-1-methyl-1H-pyrazol-4-yl)-5-fluoropyrimidin-2-yl)amino)cyclohexyl)amino)-N-(2-(2-(2-(2-((2-(2,6-dioxopiperidin-3-yl)-1,3-dioxoisoindolin-4-yl)amino)ethoxy)ethoxy)ethoxy)ethyl)acetamido] | ≥ 75% | 25 to 50% |  |  |  | > 90% | 50 to 75% |  |  |  | 
CC(C)(C)c1cnc(CSc2cnc(NC(=O)C3CCN(CC(=O)NCCCNCC(=O)NCc4cc5c(s4)C(=O)N(C4CCC(=O)NC4=O)C5)CC3)s2)o1 (centres unmarked) [Compound 52, N-(5-(((5-(tert-butyl)oxazol-2-yl)methyl)thio)thiazol-2-yl)-1-(2-((3-((2-(((5-(2,6-dioxopiperidin-3-yl)-6-oxo-5,6-dihydro-4H-thieno[2,3-c]pyrrol-2-yl)methyl)amino)-2-oxoethyl)amino)propyl)amino)-2-oxoethyl)piperidine-4-carboxamide] | 25 to 50% | 25 to 50% |  |  |  | > 90% | 50 to 75% |  |  |  | 
Cn1ncc(-c2nc(N[C@H]3CC[C@H](NCCCCCCCCNC(=O)NCc4cc5c(s4)C(=O)N(C4CCC(=O)NC4=O)C5)CC3)ncc2Cl)c1CC1CC1 (some centres unmarked) [Compound 22, 1-(8-(((1r,4r)-4-((5-chloro-4-(5-(cyclopropylmethyl)-1-methyl-1H-pyrazol-4-yl)pyrimidin-2-yl)amino)cyclohexyl)amino)octyl)-3-((5-(2,6-dioxopiperidin-3-yl)-6-oxo-5,6-dihydro-4H-thieno[2,3-c]pyrrol-2-yl)methyl)urea] |  | < 25% |  |  |  | > 90% |  | 50 to 75% | ≥ 75% | < 25% | 50 to 75%
CC(C)(C)c1cnc(CSc2cnc(NC(=O)C3CCN(CC(=O)NCCCCNCc4ccc(OCc5scc6c5CN([C@H]5CCC(=O)NC5=O)C6=O)cc4)CC3)s2)o1 (stereo in doubt) [Compound 54, N-(5-(((5-(tert-butyl)oxazol-2-yl)methyl)thio)thiazol-2-yl)-1-(2-((4-((4-((5-(2,6-dioxopiperidin-3-yl)-4-oxo-5,6-dihydro-4H-thieno[3,4-c]pyrrol-1-yl)methoxy)benzyl)amino)butyl)amino)-2-oxoethyl)piperidine-4-carboxamide] | 50 to 75% | 50 to 75% |  |  |  | > 90% |  |  |  |  | 
CC(C)(C)c1cnc(CSc2cnc(NC(=O)C3CCN(CC(=O)NCCOCCNC(=O)NCc4cccc5c4CN([C@H]4CCCC(=O)NC4=O)C5=O)CC3)s2)o1 [Compound 7, (S)—N-(5-(((5-(tert-butyl)oxazol-2-yl)methyl)thio)thiazol-2-yl)-1-(1-(2-(2,7-dioxoazepan-3-yl)-1-oxoisoindolin-4-yl)-3,11-dioxo-7-oxa-2,4,10-triazadodecan-12-yl)piperidine-4-carboxamide] | < 25% | < 25% | < 50% | < 50% | < 50% | < 50% |  |  |  |  | 
Cn1ncc(-c2nc(N[C@H]3CC[C@H](NCCOCCOCCOCCNCc4ccc(OCc5scc6c5CN([C@H]5CCC(=O)NC5=O)C6=O)cc4)CC3)ncc2Cl)c1CC1CC1 [Compound 69, (S)-3-(1-((4-(13-(((1r,4r)-4-((5-chloro-4-(5-(cyclopropylmethyl)-1-methyl-1H-pyrazol-4-yl)pyrimidin-2-yl)amino)cyclohexyl)amino)-5,8,11-trioxa-2-azatridecyl)phenoxy)methyl)-4-oxo-4H-thieno[3,4-c]pyrrol-5(6H)-yl)piperidine-2,6-dione] | ≥ 75% | 50 to 75% | 70 to 90% | < 50% | 70 to 90% | < 50% |  |  |  |  | 
Cn1ncc(-c2nc(N[C@H]3CC[C@H](NC(=O)CCCCCCNCC(=O)NCc4ccc(COc5cccc6c5CN(C5CCC(=O)NC5=O)C6=O)cc4)CC3)ncc2Cl)c1CC1CC1 (some centres unmarked) [Compound 8, N-((1r,4r)-4-((5-chloro-4-(5-(cyclopropylmethyl)-1-methyl-1H-pyrazol-4-yl)pyrimidin-2-yl)amino)cyclohexyl)-7-((2-((4-(((2-(2,6-dioxopiperidin-3-yl)-1-oxoisoindolin-4-yl)oxy)methyl)benzyl)amino)-2-oxoethyl)amino)heptanamide] | 50 to 75% |  | < 50% | < 50% | < 50% | 70 to 90% | < 25% |  |  |  | 
CC(C)(C)c1cnc(CSc2cnc(NC(=O)C3CCN(CC(=O)NCCCCCNC(=O)NCc4scc5c4CN(C4CCC(=O)NC4=O)C5=O)CC3)s2)o1 (centres unmarked) [Compound 11, N-(5-(((5-(tert-butyl)oxazol-2-yl)methyl)thio)thiazol-2-yl)-1-(2-((5-(3-((5-(2,6-dioxopiperidin-3-yl)-4-oxo-5,6-dihydro-4H-thieno[3,4-c]pyrrol-1-yl)methyl)ureido)pentyl)amino)-2-oxoethyl)piperidine-4-carboxamide] |  | 25 to 50% |  |  |  | > 90% | 25 to 50% |  |  |  | 
